The structures appear in SMILES notation. Residues, ends and D or L forms follow the SMILES beside them.

Data set [1] has as its system mice subject to ECS-induced amnestic impact. Kind of data set: CRPA in mice subject to ECS-induced amnestic impact. The class given is in vivo. Particulars: testing in 24 hours after the training. The procedure: Nootropic activity of L-Ala-L-Glu-L-Asp-L-Pro tetrapeptide was studied with the application of the conditioned reflex of passive avoidance (CRPA) in the intact animals and under the conditions of amnestic impacts (electroconvulsive treatment and ethanol intoxication).
The experiments were carried out on male mice weighing 20 to 24 g. For each animal the period of stay in dark and lighted chamber departments was registered during 2 min. before the training. […] The animals were trained by means of applying an electric pain stimulus in the preferred dark department, which lasted until the animal left this department. L-Ala-L-Glu-L-Asp-L-Pro tetrapeptide was introduced intraperitoneally 60 min. before the training. Testing was performed in 2 and 24 hours after the training. The period the animal stayed in the dark and lighted chamber departments and the number of animals not entering the dark department (“educated” animals) were recorded.
Electroconvulsive shock (ECS) was induced in the mice no later than in 10 sec. after the training via corneal electrodes by an electric impulse of 25 mA, which lasted for 0.5 sec. L-Ala-L-Glu-L-Asp-L-Pro tetrapeptide was introduced intraperitoneally 60 min. before the training. Testing was performed in 24 hours after the training.

The test system of data set [2] is white unbred rats. Kind of data set: Subacute toxicity, 90 days intramuscular. In kind it is in vivo. Particulars: intramuscular daily for 90 days, 1 μg/kg, 0.3 mg/kg, 3 mg/kg. The method, then: Subacute toxicity of L-Ala-L-Glu-L-Asp-L-Pro (SEQ ID NO:1) tetrapeptide was studied on 60 white unbred rats weighing 150 to 250 g. The experimental animals were administered the preparation intramuscularly once a day, daily for 90 days in doses 1 μg/kg, 0.3 mg/kg, 3 mg/kg in 0.5 ml of saline. The control animals were administered the similar amount of saline.
Within the entire period of study the animals were under daily supervision. Animals' behaviour, food and water consumption, the state of their hair integument and mucous membranes were registered. The animals were weighed once a week. Prior to and on the 30th, 60th and 90th days of the drug administration, the morphologic composition and properties of the peripheral blood in the animals were examined. Upon the study completion, biochemical and coagulologic blood indices were explored.

In data set [3] the test system is rats. Kind of data set: Serotonin metabolism in the brain, model of electrically induced pain stress. The class given is in vivo. The procedure: In an hour the content of serotonin and its metabolite, 5-oxyindoleacetic acid, was measured in the parietal and posterior frontal regions of the brain.
Compensatory in character, the stimulation of serotonin metabolism diminishes the emotional perception of a pain impact, Natural “drawback” of the said mechanism consists in a quick transition to the state of decompensation. In control (untreated stress) the level of serotonin lowered, while that of 5-oxyindoleacetic acid rose (metabolic depletion phase).

In data set [4] the test system is white unbred male mice. The experiment in a line: Acute toxicity according to Kerber, single intramuscular administration. The class given is in vivo. The source says: Possible toxic effects of L-Ala-L-Glu-L-Asp-L-Pro (SEQ ID NO:1) tetrapeptide on the organism were studied in compliance with “The rules of preclinical estimation of safety of pharacological agents” (GLP) approved by the Department of State Control on Medicinal Agents and Medical Equipment of the Russian Federation of Dec. 29, 1997.
Objective of the study consisted in defining the tolerable toxic drug doses of the agent, estimating the stage and character of pathologic alterations in various organs and systems and in exploring the correlation between the toxic effects and the dose and duration of the drug application.
Acute toxicity of L-Ala-L-Glu-L-Asp-L-Pro (SEQ ID NO:1) tetrapeptide was determined according to Kerber. The study was performed on 66 white unbred male mice weighing 20 to 23 g kept in vivarium under standard regimen and fed upon standard rations. The animals were randomly divided into 6 equal groups by 11 mice in each. The animals were subject to a single intramuscular administration of 0.25 ml of the preparation in doses 1 mg/kg, 2 mg/kg, 3 mg/kg, 4 mg/kg, 5 mg/kg (several thousand times exceeding the therapeutic dose recommended for clinical trials). The control animals were administered the similar amount of saline.

Data set [5] has as its system cerebral cortex of rats. Kind of data set: Intensity of lipid peroxide oxidation reactions and protein peroxidation in the cerebral cortex. The class given is in vivo. Particulars: 1 μg intraperitoneally daily for 5 days. The method, then: The intensity of lipid peroxide oxidation (LPO) was assessed by the content of initial LPO products—diene conjugates and end products—Schiff bases. The degree of protein peroxidation was estimated by the content of carbonyl-derived amino acids in proteins after their interaction with 2,4-dinitrophenylhydrazine.
The study was conducted on 20 white unbred rats. 1 μg of the tetrapeptide was administered to the animals intraperitoneally daily for 5 days.
Moreover, the tetrapeptide application inhibited protein peroxidation as well as LPO (Table 1).

The subject of data set [6] is patients with vascular dementia. Kind of data set: Preliminary clinical trial in patients with vascular dementia. Particulars: 3 μg intramuscularly once daily for 30 days. The class given is in vivo, human. The procedure:
Twelve patients aged 69 to 76 years (7 males and 5 females) suffering from hypertensive disease and atherosclerosis of cerebral vessels for a long time were enrolled in the study. Three of them had apoplexy in their medical histories. Initial data obtained in the similar patients before the treatment was used as control. L-Ala-L-Glu-L-Asp-L-Pro tetrapeptide was intramuscularly injected in a single dose of 3 μg once daily for 30 days.
Results were assessed after the treatment in comparison with the data obtained before the treatment. Basing on the examination results, changes in the patients' state were defined according to the following gradation: improvement (substantial, average or minor), deterioration, no changes.
At the pretreatment examination signs of intellectual-mnemic defect were found in all the patients: memory impairment, intellectual deterioration, aphasia, apraxia and agraphia disorders. In 9 patients signs of disorientation in time and place were found. The patients' emotional state was labile, manifested with periodical alternation of apathy and euphoria, complacency and anger aptness.

Setting [7] is: 5 μg/kg, post-stress introduction, measured in an hour.

As to `C[C@H](N)C(=O)N[C@@H](CCC(=O)O)C(=O)N[C@@H](CC(=O)O)C(=O)N1CCC[C@H]1C(=O)O` [L-Ala-L-Glu-L-Asp-L-Pro tetrapeptide, L-Alanyl-L-Glutamyl-L-Aspartyl-L-Proline] (H-AEDP-OH), the “Total period of stay in the dark chamber in 24 hours” value in data set [1] amounted to 38.1 ± 4.4. Moreover, the “Trained animals (%)” value in data set [1] (i.p. 60 min. before the training) was 25%. Moreover, the “side effects, subacute toxicity” value in data set [2] is “absence of any side effects”. For the same compound, in data set [3] (setting [7]), the “content of 5-oxyindoleacetic acid in the brain” value is “diminished” and the “content of serotonin in the brain” value is recorded as “increased”. Moreover, in data set [3] (intact animals), the “levels of serotonin and its metabolite” value was “did not induce any changes”. Besides, the acute toxic reactions entry in data set [4] (doses several thousand times exceeding the therapeutic one) is given as “did not induce any acute toxic reactions”. Further, the “alterations in the general state, behaviour, motional activity, hair and skin integument, physiologic discharges” value in data set [4] (single intramuscular 1-5 mg/kg) is “No alterations”. In addition, in data set [4] (single intramuscular 1-5 mg/kg, within 72 hours and in 14 days), the death of mice result is given as “none of the mice in either of the groups died”. In data set [5], the “Degree of protein peroxidation” value is on record as 4.81 ± 0.09 μmole/mg of protein, the Diene conjugates is 29.67 ± 1.93 nmole/g of the tissue and the Schiff bases was 245.2 ± 23.9 IU/g of the tissue. The “patients showing reverse development of the pathologic symptoms” value in data set [6] is on record as 74.8%.

The values above are taken from US7189701B1, “Tetrapeptide stimulating functional activity of neurons pharmacological agent based thereon and method of use thereof” (Sankt-Petersburgskaya Obschestvennaya Organizatsiya …, priority 1999, dated 2007).
